These are literature values, as cited in patent US20130337047A1, “COMPOSITIONS FOR TREATING ORAL AND PERIODONTAL INFECTIONS” (ZarzaTech, Inc., priority 2012, published 2013).

In one series the test system is crevicular neutrophils. The following applies: humans, topical 0.5% oral rinse.

SMILES strings stand for the structures. Structures can show the parent of a compound that is named as a salt.

`CN/C(=N/CCSCc1nc[nH]c1C)NC#N` [cimetidine]: in the series on crevicular neutrophils, the “Antibacterial function of crevicular neutrophils” value is reported as “enhanced” and the Clinical gingivitis benefit result is “no clinical gingivitis benefit”. Further, in the series with gingivitis (dog gingivitis model), the “Antiplaque activity and tooth stain” value is recorded as “no antiplaque activity or increase in tooth stain”; the “Gingival inflammation and gingival bleeding” value is listed as “significantly reduced”; the Gingivitis entry is given as “reduced gingivitis”.

As to `CN/C(=N/CCSCc1nc[nH]c1C)NC#N` [cimetidine HCL], the Anti-gingivitis activity result with gingivitis (dose response study, dog gingivitis model) is “significant anti-gingivitis activity that increased with increasing dose”. Moreover, in the series with gingivitis (prevention study, same dog model), the Prevention of gingivitis entry is “not conclusive”.
